According to patent US20160081354A1, “METHOD FOR TREATMENT OF MICROORGANISMS DURING PROPAGATION, CONDITIONING AND FERMENTATION USING HOPS ACID EXTRACTS AND NISIN” (Solenis Technologies, L.P., priority 2014, published 2016):

Columns and labels:
[1] = system: L. plantarum; experiment: Corn mash fermentation lab test: bacterial colony counts after antimicrobial addition; format: cell-based; conditions: nisin alone 5 ppm, virginiamycin 0.5 ppm
Description: Evaluations were conducted at the National Corn-to-Ethanol Research Center, utilizing hops acid extracts and nisin. The samples tested and their concentrations can be found in FIG. 1 and Tables 2 and 4. The tests were conducted to evaluate the effects of binary antimicrobials on ethanol production in corn mash produced under conditions that are similar to those used in the fuel ethanol industry. Two specific effects were investigated: (1) the ability of antimicrobials to affect ethanol yield and sugar conversion in fermentations that are contaminated by lactic acid bacteria, and (2) the ability of antimicrobials to control bacterial infections compared to control bacteria-free fermentations. Three 160-gram slurries of corn flour, water and enzyme (30% w/w dry solids) were made for each treatment and control (inoculated and uninoculated). The slurries were incubated for 90 minutes at 83° C., cooled to 40° C., and then inoculated with L. plantarum. Next, the slurries were dosed with antimicrobial. The facility dosed hops acid extracts and nisin to 250-mL Erlenmeyer flasks and samples were collected at 15, 30 and 60 minutes post antimicrobial addition. After the 3 time-point samples were collected, the pH of the mash was adjusted to <5.2 by addition of 300 μl of 5-N sulfuric acid. All enzymes, nutrients, and other amendments added to the fermentation flasks were freshly prepared before use. Urea was added as a sterile 0.2-g/ml solution to a final concentration of 500 ppm (w/w) based on the nitrogen content of the urea (w/w, based on the total mass of mash). The glucoamylase enzyme (Spirizyme Excel, Novozymes) was prepared as a 0.25-g/ml solution and added at a dose of 0.066% (w/w, based on the wet weight of corn). Sterile water was added to equalize the total solids content of each treatment. […] The mass of each flask was recorded after all additions were made, then sanitized fermentation traps were inserted into each flask and they were weighed again. […] Fermentation progress was monitored by weighing the fermentation flasks periodically during the 3-day incubation (at 0, 17.5, 22.5, 42.5, 48, and 64 hrs after inoculation with yeast). The concentrations of substrates (glucose, DP2, DP3, and DP4+, where “DPx” represent glucose oligomers with “x” subunits) and products (ethanol, glycerol, lactic acid, and acetic acid) were measured by HPLC at the end of fermentation. Samples were prepared for HPLC by centrifugation to remove large solids, followed by filtration through 0.45-μm syringe filters, and acidification to pH of approximately 2 by addition of sulfuric acid to a final concentration of 0.01 N. The final pH, concentrations of total dry solids and dissolved dry solids, and the density of the beer filtrate was measured were measured after incubation for 64 hours. […]

[2] = system: yeast (Saccharomyces cerevisiae) fermentations contaminated by lactic acid bacteria (L. plantarum); experiment: Corn mash fermentation lab test: ethanol and lactic acid at the end of fermentation; format: cell-based; conditions: 64 hours, nisin alone 5 ppm, Virginiamycin 0.5 ppm
Description: Evaluations were conducted at the National Corn-to-Ethanol Research Center, utilizing hops acid extracts and nisin. The samples tested and their concentrations can be found in FIG. 1 and Tables 2 and 4. The tests were conducted to evaluate the effects of binary antimicrobials on ethanol production in corn mash produced under conditions that are similar to those used in the fuel ethanol industry. Two specific effects were investigated: (1) the ability of antimicrobials to affect ethanol yield and sugar conversion in fermentations that are contaminated by lactic acid bacteria, and (2) the ability of antimicrobials to control bacterial infections compared to control bacteria-free fermentations. Three 160-gram slurries of corn flour, water and enzyme (30% w/w dry solids) were made for each treatment and control (inoculated and uninoculated). The slurries were incubated for 90 minutes at 83° C., cooled to 40° C., and then inoculated with L. plantarum. Next, the slurries were dosed with antimicrobial. […] The mass of each flask was recorded after all additions were made, then sanitized fermentation traps were inserted into each flask and they were weighed again. […] Fermentation progress was monitored by weighing the fermentation flasks periodically during the 3-day incubation (at 0, 17.5, 22.5, 42.5, 48, and 64 hrs after inoculation with yeast). The concentrations of substrates (glucose, DP2, DP3, and DP4+, where “DPx” represent glucose oligomers with “x” subunits) and products (ethanol, glycerol, lactic acid, and acetic acid) were measured by HPLC at the end of fermentation. Samples were prepared for HPLC by centrifugation to remove large solids, followed by filtration through 0.45-μm syringe filters, and acidification to pH of approximately 2 by addition of sulfuric acid to a final concentration of 0.01 N. The final pH, concentrations of total dry solids and dissolved dry solids, and the density of the beer filtrate was measured were measured after incubation for 64 hours. […]

[3] = system: yeast; conditions: fermentation mixture; cited from earlier work
[4] = system: Weisella confusa; conditions: cited from earlier work

Virginiamycin
Colony counts after antimicrobial addition ([1]; time point 0.25 (15 minutes post addition)): 1.00E+06
Colony counts after antimicrobial addition ([1]; time point 0.5 (30 minutes post addition)): 1.35E+06
Colony counts after antimicrobial addition ([1]; time point 1 (60 minutes post addition)): 1.95E+06
Colony counts at the end of fermentation ([1]; time point 64 (64 hours)): 6.67E+04
Average Ethanol ([2]; end of fermentation): 11.86 %, w/v
Average Final Lactic Acid Concentration ([2]; end of fermentation): 0.38 %, w/w
Average Final Ethanol Yield ([2]; grams ethanol per grams of dry corn, average of three flasks): 0.312 g/g
concentration that will suppress production of ethanol [3]: over 2 mg/L
concentration required to inhibit growth of Weisella confusa [4]: over 25 mg/L
